According to the supplement of paper PMC11665569:
± gives the standard deviation of the averaged measurements.

How the values were obtained:
Assay in all cases: relative viability (fraction of vehicle control); higher = more viable / less inhibited
H1373 = settings: log10 concentration (uM): -4, treatment time: 5 days
Protocol: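 CCK-8 viability of H1373 cells with empty vector or constitutively active YAP S127A, treated with KRAS G12C inhibitors for 5 days, normalised to vehicle control.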

KYSE410 = settings: treatment time: 5 days
Protocol: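 CCK-8 viability of KYSE410 cells transfected with control, YAP/TAZ or TEAD1-4 siRNAs and treated with KRAS G12C inhibitors for 5 days. Values are normalised to vehicle control.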

H358 = settings: treatment time: 5 days
Protocol: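 CCK-8 viability of H358 cells with empty vector or constitutively active YAP S127A, treated with KRAS G12C inhibitors for 5 days. Absorbance at 450 nm normalised to vehicle control.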

C=C(F)C(=O)N1CCN(c2nc(OC[C@@H]3CCCN3C)nc3c2CCN(c2cccc4cccc(Cl)c24)C3)C[C@@H]1CC#N [MRTX849]
Settings	relative viability
H358, log10 concentration (uM): 0, ectopic expression: YAP S127A	0.6 ± 0.033
H358, log10 concentration (uM): 0, ectopic expression: empty vector (YAP experiment)	0.139 ± 0.025
H358, log10 concentration (uM): 0.69897, ectopic expression: YAP S127A	0.144 ± 0.069
H358, log10 concentration (uM): 0.69897, ectopic expression: empty vector (YAP experiment)	0.0333 ± 0.033
H358, log10 concentration (uM): -0.30103, ectopic expression: YAP S127A	0.811 ± 0.22
H358, log10 concentration (uM): -0.30103, ectopic expression: empty vector (YAP experiment)	0.217 ± 0.076
H358, log10 concentration (uM): -1, ectopic expression: YAP S127A	0.733 ± 0.13
H358, log10 concentration (uM): -1, ectopic expression: empty vector (YAP experiment)	0.328 ± 0.1
H358, log10 concentration (uM): -1.30103, ectopic expression: YAP S127A	0.811 ± 0.069
H358, log10 concentration (uM): -1.30103, ectopic expression: empty vector (YAP experiment)	0.361 ± 0.0096
H358, log10 concentration (uM): -2, ectopic expression: YAP S127A	1.02 ± 0.16
H358, log10 concentration (uM): -2, ectopic expression: empty vector (YAP experiment)	0.678 ± 0.098
H358, log10 concentration (uM): -2.30103, ectopic expression: YAP S127A	1.1 ± 0.14
H358, log10 concentration (uM): -2.30103, ectopic expression: empty vector (YAP experiment)	0.783 ± 0.044
H358, log10 concentration (uM): -3, ectopic expression: YAP S127A	1.27 ± 0.033
H358, log10 concentration (uM): -3, ectopic expression: empty vector (YAP experiment)	0.828 ± 0.035
H358, log10 concentration (uM): -4, ectopic expression: YAP S127A	1.12 ± 0.038
H358, log10 concentration (uM): -4, ectopic expression: empty vector (YAP experiment)	0.778 ± 0.035
H1373, ectopic expression: YAP S127A	1.01 ± 0.012
H1373, ectopic expression: empty vector (YAP experiment)	0.995 ± 0.062
KYSE410, log10 concentration (uM): 0, siRNA knockdown: TEAD1-4 siRNA 1	0.319 ± 0.078
KYSE410, log10 concentration (uM): 0, siRNA knockdown: TEAD1-4 siRNA 2	0.212 ± 0.035
KYSE410, log10 concentration (uM): 0, siRNA knockdown: YAP/TAZ siRNA 1	0.273 ± 0.051
KYSE410, log10 concentration (uM): 0, siRNA knockdown: YAP/TAZ siRNA 2	0.298 ± 0.012
KYSE410, log10 concentration (uM): 0, siRNA knockdown: negative control siRNA	0.646 ± 0.03
KYSE410, log10 concentration (uM): 0.69897, siRNA knockdown: TEAD1-4 siRNA 1	0.0217 ± 0.003
KYSE410, log10 concentration (uM): 0.69897, siRNA knockdown: TEAD1-4 siRNA 2	0.0146 ± 0.0016
KYSE410, log10 concentration (uM): 0.69897, siRNA knockdown: YAP/TAZ siRNA 1	0.00876 ± 0.00077
KYSE410, log10 concentration (uM): 0.69897, siRNA knockdown: YAP/TAZ siRNA 2	0.00963 ± 0.0013
KYSE410, log10 concentration (uM): 0.69897, siRNA knockdown: negative control siRNA	0.0324 ± 0.0016
KYSE410, log10 concentration (uM): -0.30103, siRNA knockdown: TEAD1-4 siRNA 1	0.419 ± 0.11
KYSE410, log10 concentration (uM): -0.30103, siRNA knockdown: TEAD1-4 siRNA 2	0.317 ± 0.025
KYSE410, log10 concentration (uM): -0.30103, siRNA knockdown: YAP/TAZ siRNA 1	0.381 ± 0.041
KYSE410, log10 concentration (uM): -0.30103, siRNA knockdown: YAP/TAZ siRNA 2	0.395 ± 0.017
KYSE410, log10 concentration (uM): -0.30103, siRNA knockdown: negative control siRNA	0.715 ± 0.022
KYSE410, log10 concentration (uM): -1, siRNA knockdown: TEAD1-4 siRNA 1	0.582 ± 0.056
KYSE410, log10 concentration (uM): -1, siRNA knockdown: TEAD1-4 siRNA 2	0.45 ± 0.055
KYSE410, log10 concentration (uM): -1, siRNA knockdown: YAP/TAZ siRNA 1	0.481 ± 0.048
KYSE410, log10 concentration (uM): -1, siRNA knockdown: YAP/TAZ siRNA 2	0.445 ± 0.044
KYSE410, log10 concentration (uM): -1, siRNA knockdown: negative control siRNA	0.788 ± 0.044
KYSE410, log10 concentration (uM): -1.30103, siRNA knockdown: TEAD1-4 siRNA 1	0.704 ± 0.037
KYSE410, log10 concentration (uM): -1.30103, siRNA knockdown: TEAD1-4 siRNA 2	0.572 ± 0.083
KYSE410, log10 concentration (uM): -1.30103, siRNA knockdown: YAP/TAZ siRNA 1	0.559 ± 0.05
KYSE410, log10 concentration (uM): -1.30103, siRNA knockdown: YAP/TAZ siRNA 2	0.525 ± 0.033
KYSE410, log10 concentration (uM): -1.30103, siRNA knockdown: negative control siRNA	0.814 ± 0.0083
KYSE410, log10 concentration (uM): -2, siRNA knockdown: TEAD1-4 siRNA 1	0.871 ± 0.1
KYSE410, log10 concentration (uM): -2, siRNA knockdown: TEAD1-4 siRNA 2	0.648 ± 0.099
KYSE410, log10 concentration (uM): -2, siRNA knockdown: YAP/TAZ siRNA 1	0.767 ± 0.057
KYSE410, log10 concentration (uM): -2, siRNA knockdown: YAP/TAZ siRNA 2	0.735 ± 0.031
KYSE410, log10 concentration (uM): -2, siRNA knockdown: negative control siRNA	0.942 ± 0.015
KYSE410, log10 concentration (uM): -2.30103, siRNA knockdown: TEAD1-4 siRNA 1	0.873 ± 0.16
KYSE410, log10 concentration (uM): -2.30103, siRNA knockdown: TEAD1-4 siRNA 2	0.793 ± 0.078
KYSE410, log10 concentration (uM): -2.30103, siRNA knockdown: YAP/TAZ siRNA 1	0.855 ± 0.038
KYSE410, log10 concentration (uM): -2.30103, siRNA knockdown: YAP/TAZ siRNA 2	0.868 ± 0.036
KYSE410, log10 concentration (uM): -2.30103, siRNA knockdown: negative control siRNA	0.937 ± 0.026
KYSE410, log10 concentration (uM): -3, siRNA knockdown: TEAD1-4 siRNA 1	0.888 ± 0.036
KYSE410, log10 concentration (uM): -3, siRNA knockdown: TEAD1-4 siRNA 2	0.869 ± 0.063
KYSE410, log10 concentration (uM): -3, siRNA knockdown: YAP/TAZ siRNA 1	0.936 ± 0.056
KYSE410, log10 concentration (uM): -3, siRNA knockdown: YAP/TAZ siRNA 2	0.915 ± 0.029
KYSE410, log10 concentration (uM): -3, siRNA knockdown: negative control siRNA	0.981 ± 0.023
KYSE410, log10 concentration (uM): -4, siRNA knockdown: TEAD1-4 siRNA 1	1.04 ± 0.14
KYSE410, log10 concentration (uM): -4, siRNA knockdown: TEAD1-4 siRNA 2	0.951 ± 0.073
KYSE410, log10 concentration (uM): -4, siRNA knockdown: YAP/TAZ siRNA 1	0.946 ± 0.027
KYSE410, log10 concentration (uM): -4, siRNA knockdown: YAP/TAZ siRNA 2	1.01 ± 0.014
KYSE410, log10 concentration (uM): -4, siRNA knockdown: negative control siRNA	0.987 ± 0.021
